According to US20210299082A1, “FISETIN COMPOSITION AND A METHOD OF MAKING THE SAME” (priority 2020, published 2021):
Read-outs that look alike come from different tables or passages of the source.

What was measured:
[1] = tested on: joint pain in a person; assay: joint pain relief in a person after oral fisetin; format: in vivo, human; conditions: for reported joint pain: ingested 5 consecutive days
Method: In still another embodiment of the invention, the fisetin composition is used to relieve joint pain in a person. A person ingested fisetin (500 mg) in capsule powder form for 5 consecutive days, fisetin (500 mg) mixed in 35 mL of MCT oil for 5 consecutive days, or fisetin (500 mg) mixed in 40 mL of 40% ethanol and 60% water for 5 consecutive days, each test separated by a month. Reported joint pain decreased only after consuming fisetin in 40% ethanol and 60% water, but not the other regimens.

[2] = solubility of fisetin in water and in ethanol; format: physicochemical
Method: In one embodiment of the invention, a fisetin composition comprises fisetin and a second component that is selected from a group that comprises ethanol. The group may further comprise water. In one example, the solubility of fisetin in water is substantially 0.05 mg/mL or more, such as 0.1 mg/mL or more, 0.15 mg/mL or more, or 0.2 mg/mL. In another example, the solubility of fisetin in ethanol is substantially 2 mg/mL or more, such as 4 mg/mL or more, 6 mg/mL or more, 8 mg/mL or more, or 10 mg/mL or more.

[3] = tested on: blood glucose level; assay: blood glucose level in a person after oral fisetin; format: in vivo, human
Method: In still another example of the embodiment, fisetin can be used to decrease blood glucose level. Fisetin (500 mg) was ingested by a person after mixing with 75 mL of 53% ethanol and 47% water for 3 consecutive days.

[4] = tested on: skin of 20 people; assay: topical skin treatment; format: in vivo, human; conditions: 200 mM fisetin in polyethylene glycol containing titanium nanoparticles; applied to the skin of 20 people for 2 days
Method: In yet another example of the invention, fisetin can be used as a topical skin treatment. Fisetin was dissolved in polyethylene glycol containing titanium nanoparticles with a resulting fisetin concentration of 200 mM. Fisetin was applied to the skin of 20 people for 2 days.

[5] = 500 mg for 5 consecutive days, regimen not specified, stated after the 40% ethanol and 60% water result
[6] = 500 mg in 75 mL of 53% ethanol and 47% water, 3 consecutive days

solubility ([2]; in water, read-out: solubility of fisetin in water): ≥ 50 µg/mL
solubility ([2]; organic solvent or mixture, in ethanol, read-out: solubility of fisetin in ethanol): ≥ 2000 µg/mL
Structure (SMILES): O=c1c(O)c(-c2ccc(O)c(O)c2)oc2cc(O)ccc12 [fisetin]
energy [1, 5]: slight increase
metabolism [1, 5]: slight increase
weight decrease ([1]; 500 mg for 5 consecutive days, to a BMI 23.7): approximately 1 kg
reported joint pain ([1]; 500 mg in capsule powder form): not
reported joint pain ([1]; 500 mg mixed in 35 mL of MCT oil): not
reported joint pain ([1]; 500 mg mixed in 40 mL of 40% ethanol and 60% water): decreased
energy [3, 6]: slight increase
metabolism [3, 6]: slight increase
weight decrease ([3]; 500 mg in 75 mL of 53% ethanol and 47% water, 3 consecutive days, to a BMI 22.1): approx. 1 kg
waking blood glucose level after the administration ([3]; 500 mg mixed with 75 mL of 53% ethanol and 47% water, 3 consecutive days, decreased from 5.7 mmol/L): 4.8 mmol/L
muscle gain ([3]; in a month afterwards without increased exercise): slight muscle gain
skin appearance reported by subjects [4]: improved skin appearance
